Measured values as given in article PMC10421270, “Investigation on Novel E/Z 2-Benzylideneindan-1-One-Based Photoswitches with AChE and MAO-B Dual Inhibitory Activity” (Molecules, 2023).
“And” between values parts separate entries of the source, which are not always exact repeats. Equal entries are not always repeated. Where two headings read alike, the source gives them in different places.

Tests used:
[1] = target: T1, hAChE (Homo sapiens, UniProt P22303); experiment: biochemical; assay type: biochemical
T1 construct: purchased Sigma Aldrich (Milan, Italy)
T1 sequence (P22303 32-614): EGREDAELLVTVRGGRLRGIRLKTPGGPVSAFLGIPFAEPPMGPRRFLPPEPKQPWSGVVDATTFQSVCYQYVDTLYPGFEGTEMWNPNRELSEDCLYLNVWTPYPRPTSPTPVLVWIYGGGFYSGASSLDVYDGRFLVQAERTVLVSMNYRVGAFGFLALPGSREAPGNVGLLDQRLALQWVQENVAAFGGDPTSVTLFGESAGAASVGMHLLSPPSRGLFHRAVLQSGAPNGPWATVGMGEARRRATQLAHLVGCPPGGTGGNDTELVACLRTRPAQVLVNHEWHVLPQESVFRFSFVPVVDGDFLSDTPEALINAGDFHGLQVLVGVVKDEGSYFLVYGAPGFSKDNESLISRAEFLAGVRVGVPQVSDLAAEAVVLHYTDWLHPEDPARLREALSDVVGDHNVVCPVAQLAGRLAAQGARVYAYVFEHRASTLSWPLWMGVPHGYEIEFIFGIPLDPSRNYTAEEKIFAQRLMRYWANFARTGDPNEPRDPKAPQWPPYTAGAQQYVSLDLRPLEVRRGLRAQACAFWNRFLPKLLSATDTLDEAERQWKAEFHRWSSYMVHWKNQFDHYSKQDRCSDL

[2] = target: T2, BChE from human serum (Homo sapiens, UniProt P06276); experiment: biochemical; details: for inhibition at 10 µM: read-out: BChE % inhibition at 10 μM, 10 μM, values in parentheses, n.a. = not active; for IC50: mean ± SD of three independent measurements
T2 construct: BChE from human serum; purchased Sigma Aldrich (Milan, Italy); host or cells: human serum
T2 sequence (P06276 29-602): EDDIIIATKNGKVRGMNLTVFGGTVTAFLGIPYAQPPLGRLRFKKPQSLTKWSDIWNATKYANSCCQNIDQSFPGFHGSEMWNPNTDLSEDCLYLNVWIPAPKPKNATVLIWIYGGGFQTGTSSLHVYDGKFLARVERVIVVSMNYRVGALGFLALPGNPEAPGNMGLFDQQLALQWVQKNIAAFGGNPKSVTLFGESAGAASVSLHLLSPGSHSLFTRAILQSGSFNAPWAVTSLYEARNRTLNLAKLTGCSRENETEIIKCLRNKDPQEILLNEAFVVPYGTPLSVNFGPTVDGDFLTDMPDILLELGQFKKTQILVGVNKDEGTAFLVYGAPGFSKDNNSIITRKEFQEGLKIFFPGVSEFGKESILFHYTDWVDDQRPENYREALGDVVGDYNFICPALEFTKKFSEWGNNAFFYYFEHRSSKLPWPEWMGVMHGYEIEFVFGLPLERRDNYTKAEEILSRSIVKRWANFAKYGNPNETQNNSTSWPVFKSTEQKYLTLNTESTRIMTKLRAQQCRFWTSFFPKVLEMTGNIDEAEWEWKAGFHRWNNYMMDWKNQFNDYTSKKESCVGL
Procedure: Human isoforms of ChEs (human recombinant AChE and BChE from human serum) and MAOs (from baculovirus-infected insect cells), purchased from Sigma Aldrich (Milan, Italy), were used for inhibition assays. Experiments were performed in 96-well plates (Greiner Bio-One, Kremsmünster, Austria) on the Infinite M1000 Pro plate reader (Tecan, Cernusco s.N., Italy), using already published protocols [46, 58, 59, 60].

[3] = target: T3, human recombinant MAO-A (Homo sapiens, UniProt P21397); experiment: biochemical; details: for inhibition at 10 µM: read-out: MAO-A % inhibition at 10 μM, human MAO-A, values in parentheses; for IC50: MAO-A IC50, human MAO-A, mean ± SD of three independent measurements
T3 construct: purchased Sigma Aldrich (Milan, Italy); host or cells: baculovirus-infected insect cells
T3 sequence (P21397 1-527): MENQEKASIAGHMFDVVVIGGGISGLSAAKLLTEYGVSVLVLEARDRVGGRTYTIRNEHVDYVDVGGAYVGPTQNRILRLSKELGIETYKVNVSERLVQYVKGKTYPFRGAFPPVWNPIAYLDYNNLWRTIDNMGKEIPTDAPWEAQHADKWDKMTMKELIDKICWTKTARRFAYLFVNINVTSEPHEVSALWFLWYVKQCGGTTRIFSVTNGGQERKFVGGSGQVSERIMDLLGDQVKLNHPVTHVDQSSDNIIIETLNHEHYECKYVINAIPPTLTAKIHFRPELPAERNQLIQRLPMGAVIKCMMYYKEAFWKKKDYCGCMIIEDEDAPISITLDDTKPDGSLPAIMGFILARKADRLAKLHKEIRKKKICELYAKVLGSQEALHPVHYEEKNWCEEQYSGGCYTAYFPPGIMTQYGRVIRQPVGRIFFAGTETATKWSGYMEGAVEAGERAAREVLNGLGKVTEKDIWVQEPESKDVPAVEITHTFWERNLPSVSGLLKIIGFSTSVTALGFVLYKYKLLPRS

[4] = target: T4, human recombinant MAO B (Homo sapiens, UniProt P27338); experiment: biochemical; details: mean ± SD of three independent measurements
T4 construct: purchased Sigma Aldrich (Milan, Italy); host or cells: baculovirus-infected insect cells
T4 sequence (P27338 1-520): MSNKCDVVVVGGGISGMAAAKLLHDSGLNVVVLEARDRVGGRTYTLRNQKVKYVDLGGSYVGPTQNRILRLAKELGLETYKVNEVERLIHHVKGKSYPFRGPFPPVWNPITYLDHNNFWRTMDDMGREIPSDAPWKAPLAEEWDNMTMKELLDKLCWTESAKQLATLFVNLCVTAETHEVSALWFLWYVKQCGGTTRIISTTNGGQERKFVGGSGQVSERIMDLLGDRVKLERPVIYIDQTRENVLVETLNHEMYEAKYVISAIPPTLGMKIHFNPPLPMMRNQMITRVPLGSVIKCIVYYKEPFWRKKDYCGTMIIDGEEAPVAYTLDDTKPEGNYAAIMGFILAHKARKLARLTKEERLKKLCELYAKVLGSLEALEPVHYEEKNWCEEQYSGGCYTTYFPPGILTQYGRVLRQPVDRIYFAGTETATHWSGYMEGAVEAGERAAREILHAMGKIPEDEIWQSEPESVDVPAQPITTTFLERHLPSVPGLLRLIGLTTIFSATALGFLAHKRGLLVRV
Procedure: In MAOs’ inhibition assays, each test compound, at 10 μM concentration, was preincubated for 20 min at 37 °C with 50 μM kynuramine as the substrate in 0.1 M phosphate-buffered solution (PBS) pH 8.0 made 0.39 osmolar with KCl. After the addition of human recombinant MAO-A (250 U/mg) or MAO B (59 U/mg) and a further 30 min of incubation, NaOH was added, and the fluorescence read at 310/400 nm excitation/emission wavelength. […] For the kinetic study on the inhibition mechanism of MAO B, three diverse scalar concentrations of the inhibitor and seven concentrations of kynuramine were used [40, 61, 62].

[5] = UV-B photoisomerization to the photostationary state (1H NMR); assay type: physicochemical; details: 10 mM in methanol, two 15 W UV-B lamps, 24 °C; almost completed
Procedure: Using ^1H NMR spectroscopy, the formation of the Z diastereoisomer can be determined with confidence. Specifically, as previously done for 1a, methanol-d4 solutions of compounds 1b–e at a concentration of about 10 mM were irradiated with UV-B light in a Pyrex NMR tube and observed until the photostationary state (PSS) was reached.
The same procedure was followed for compounds 1f–h. However, due to the poor solubility in methanol at the concentrations required for ^1H NMR analysis, 1f–h was irradiated and monitored in an acetone-d6 solution. The diastereomeric E/Z ratio of the obtained PSS-1b–h was determined by calculating the area of the easily distinguishable signals assigned to the E and Z isomers (Figure 4).
The solution was irradiated with UV-B light until reaching the PSSUV-B (almost completed in 50–80 min). Subsequently, the PSSUV-B solution was irradiated under the same conditions with UV-C light generated using two lamps (15 Watt GT15T8 Hg UV-C tube), observing the photoconversion of the cis isomer into the trans isomer without the appearance of photodegradation.

[6] = target: T1, hAChE; experiment: AChE inhibition kinetics (Lineweaver–Burk, replot of slopes); assay type: biochemical
[7] = target: T1, hAChE; design: method as in PMID 35923722; details: read-out: AChE IC50; previously reported values; ref [40]; listed as E-1; cited from earlier work
[8] = design: method as in PMID 35923722; details: ref [40]; cited from earlier work
[9] = design: method as in PMID 35923722; details: Z isomer, thermal reversion; ref [40]; cited from earlier work
[10] = human AChE, mean ± SD of three independent measurements, read-out: AChE IC50

Row | Compound | inhibition at 10 µM [2] | inhibition at 10 µM [3] | IC50 [4] | IC50 [1, 10] | IC50 [2] | further results
1 | CCN(CC)Cc1ccc(C=C2Cc3cc(OC)ccc3C2=O)cc1 (mixture of isomers) [E/Z-1a] | 28% | 45% | 1.59 ± 0.04 µM | – | – | IC50 [1]: 0.78 ± 0.013 µM
2 | COc1ccc2c(c1)CC(=Cc1ccc(CN(C)C)cc1)C2=O [E/Z-1b] | 25% | 32% | 0.839 ± 0.123 µM | 0.915 ± 0.138 µM | – | –
3 | CCCCN(CCCC)Cc1ccc(C=C2Cc3cc(OC)ccc3C2=O)cc1 [E/Z-1d] | – | 37% | 0.382 ± 0.006 µM | 2.28 ± 0.21 µM | – | –
4 | CCCN(CCC)Cc1ccc(/C=C2\Cc3cc(OC)ccc3C2=O)cc1 [Compound E-1c, (E)-2-(4-((Dipropylamino)methyl)benzylidene)-5-methoxy-2,3-dihydro-1H-inden-1-one] | 28% | 15% | 0.479 ± 0.081 µM | 0.174 ± 0.017 µM | – | time to reach PSS under UV-B irradiation [5]: 50 to 80 min
5 | CCN(Cc1ccccc1)Cc1ccc(/C=C2\Cc3cc(OC)ccc3C2=O)cc1 [Compound E-1h, (E)-2-(4-((Benzyl(ethyl)amino)methyl)benzylidene)-5-methoxy-2,3-dihydro-1H-inden-1-one] | – | 13% | 0.355 ± 0.134 µM | 0.039 ± 0.001 µM | 7 ± 0.01 µM | decrease of AChE inhibitory potency on photoisomerization to Z (75% Z in PSS) ([1]; PSS mixture versus pure E isomer): about 30%; mechanism of AChE inhibition ([6]; Lineweaver–Burk, both Vmax and Km changed): mixed-type inhibition; Ki ([6]; replot of slopes versus [I], x-axis intercept, hAChE 0.2 U/mL, acetylthiocholine iodide 50–300 μM): 0.1 µM
6 | CCN(Cc1ccccc1)Cc1ccc(C=C2Cc3cc(OC)ccc3C2=O)cc1 [E/Z-1h] | – | 39% | 0.358 ± 0.008 µM | 0.053 ± 0.006 µM | 10 ± 0.32 µM | –
7 | COc1ccc2c(c1)C/C(=C\c1ccc(CN(C)Cc3ccccc3)cc1)C2=O [Compound E-1g, (E)-2-(4-((Benzyl(methyl)amino)methyl)benzylidene)-5-methoxy-2,3-dihydro-1H-inden-1-one] | – | 39% | 0.292 ± 0.06 µM | 0.115 ± 0.004 µM | 9.9 ± 0.11 µM | –
8 | CCCN(CCC)Cc1ccc(C=C2Cc3cc(OC)ccc3C2=O)cc1 [E/Z-1c] | 20% | – | 0.743 ± 0.048 µM | 0.295 ± 0.045 µM | – | IC50 [3]: ~3 µM and 2.98 µM
9 | CCCCN(CCCC)Cc1ccc(/C=C2\Cc3cc(OC)ccc3C2=O)cc1 [Compound E-1d, (E)-2-(4-((Dibutylamino)methyl)benzylidene)-5-methoxy-2,3-dihydro-1H-inden-1-one] | 28% | 12% | 0.338 ± 0.036 µM | 0.99 ± 0.05 µM | – | –
10 | CCN(CC)Cc1ccc(/C=C2\Cc3cc(OC)ccc3C2=O)cc1 [Compound E-1a, 2-(4-((diethylamino)methyl)benzylidene)-5-methoxy-2,3-dihydro-1H-inden-1-one] | – | 33% | 0.26 ± 0.012 µM | – | 10 ± 0.15 µM | IC50 [1]: 0.105 ± 0.005 µM; IC50 [7]: 0.11 µM; Z-isomer in the photostationary state (PSS) after UV-B light [8]: 75%
11 | CCCCN(C)Cc1ccc(/C=C2\Cc3cc(OC)ccc3C2=O)cc1 [Compound E-1e, (E)-2-(4-((Butyl(methyl)amino)methyl)benzylidene)-5-methoxy-2,3-dihydro-1H-inden-1-one] | – | 20% | 0.178 ± 0.086 µM | 0.102 ± 0.019 µM | 5 ± 0.45 µM | –
12 | COc1ccc2c(c1)CC(=Cc1ccc(CN(C(C)C)C(C)C)cc1)C2=O [E/Z-1f] | 20% | – | 0.241 ± 0.026 µM | 1.41 ± 0.09 µM | – | IC50 [3]: ~3 µM and 3.19 µM
13 | CCCCN(C)Cc1ccc(C=C2Cc3cc(OC)ccc3C2=O)cc1 [E/Z-1e] | – | 25% | 0.651 ± 0.061 µM | 1.36 ± 0.06 µM | – | –
14 | COc1ccc2c(c1)C/C(=C\c1ccc(CN(C)C)cc1)C2=O [Compound E-1b, (E)-2-(4-((Dimethylamino)methyl)benzylidene)-5-methoxy-2,3-dihydro-1H-inden-1-one] | – | 33% | 0.686 ± 0.059 µM | 0.155 ± 0.01 µM | – | –
15 | CCN(CC)Cc1ccc(/C=C2/Cc3cc(OC)ccc3C2=O)cc1 [Compound Z-1a] | – | – | – | – | – | half-life in MeOH at room temperature [9]: 47 days
16 | COc1ccc2c(c1)CC(=Cc1ccc(CN(C)Cc3ccccc3)cc1)C2=O [E/Z-1g] | 40% | 49% | 0.354 ± 0.07 µM | 0.135 ± 0.062 µM | – | –
17 | COc1ccc2c(c1)C/C(=C\c1ccc(CN(C(C)C)C(C)C)cc1)C2=O [Compound E-1f, (E)-2-(4-((Diisopropylamino)methyl)benzylidene)-5-methoxy-2,3-dihydro-1H-inden-1-one] | – | 22% | – | 0.261 ± 0.014 µM | 10 ± 0.85 µM | –
